{
  "source": "paper doi:10.1101/2023.11.24.568596v1",
  "about": "(biorxiv, 2023)",
  "conditions_in_all_cases": "binder",
  "key": {"CDK2": {"biological_target": "CDK2 (Homo sapiens, UniProt P24941)"}, "DYRK1A": {"biological_target": "DYRK1A (Homo sapiens, UniProt Q13627)"}, "DYRK2": {"biological_target": "T1, DYRK2 (Homo sapiens, UniProt Q92630)", "T1 sequence (Q92630 1-601)": "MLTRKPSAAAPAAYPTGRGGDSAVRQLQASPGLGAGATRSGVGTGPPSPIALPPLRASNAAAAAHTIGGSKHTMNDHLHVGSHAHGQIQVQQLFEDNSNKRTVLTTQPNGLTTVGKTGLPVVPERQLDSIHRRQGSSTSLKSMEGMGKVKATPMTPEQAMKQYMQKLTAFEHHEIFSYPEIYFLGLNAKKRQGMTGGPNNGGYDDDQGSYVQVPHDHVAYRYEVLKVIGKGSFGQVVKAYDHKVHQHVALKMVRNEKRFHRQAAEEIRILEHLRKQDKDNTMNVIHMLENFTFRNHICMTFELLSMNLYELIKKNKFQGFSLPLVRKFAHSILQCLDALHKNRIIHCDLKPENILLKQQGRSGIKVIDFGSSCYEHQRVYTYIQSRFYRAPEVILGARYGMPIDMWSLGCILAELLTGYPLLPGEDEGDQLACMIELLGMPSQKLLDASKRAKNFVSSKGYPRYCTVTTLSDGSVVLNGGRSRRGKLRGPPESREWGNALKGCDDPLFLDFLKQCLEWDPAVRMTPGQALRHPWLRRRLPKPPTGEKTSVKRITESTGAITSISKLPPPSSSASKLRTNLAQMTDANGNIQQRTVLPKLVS"}, "FECH": {"biological_target": "T2, FECH (Homo sapiens, UniProt P22830)", "T2 sequence (P22830 1-423)": "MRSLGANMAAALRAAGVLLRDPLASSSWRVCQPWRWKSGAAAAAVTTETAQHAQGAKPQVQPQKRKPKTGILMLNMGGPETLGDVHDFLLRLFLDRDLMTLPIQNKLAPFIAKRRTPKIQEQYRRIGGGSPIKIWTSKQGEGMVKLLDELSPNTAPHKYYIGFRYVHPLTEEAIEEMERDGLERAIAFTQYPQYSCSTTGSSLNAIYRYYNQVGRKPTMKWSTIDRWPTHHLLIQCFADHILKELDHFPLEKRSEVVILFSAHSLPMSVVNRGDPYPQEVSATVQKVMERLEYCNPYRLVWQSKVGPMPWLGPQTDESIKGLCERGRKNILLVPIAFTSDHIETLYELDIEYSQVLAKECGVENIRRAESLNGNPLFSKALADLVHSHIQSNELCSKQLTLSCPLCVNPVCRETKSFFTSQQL"}, "MAPKAPK2": {"biological_target": "MAPKAPK2 (Homo sapiens, UniProt P49137)", "sequence (P49137 whole entry)": "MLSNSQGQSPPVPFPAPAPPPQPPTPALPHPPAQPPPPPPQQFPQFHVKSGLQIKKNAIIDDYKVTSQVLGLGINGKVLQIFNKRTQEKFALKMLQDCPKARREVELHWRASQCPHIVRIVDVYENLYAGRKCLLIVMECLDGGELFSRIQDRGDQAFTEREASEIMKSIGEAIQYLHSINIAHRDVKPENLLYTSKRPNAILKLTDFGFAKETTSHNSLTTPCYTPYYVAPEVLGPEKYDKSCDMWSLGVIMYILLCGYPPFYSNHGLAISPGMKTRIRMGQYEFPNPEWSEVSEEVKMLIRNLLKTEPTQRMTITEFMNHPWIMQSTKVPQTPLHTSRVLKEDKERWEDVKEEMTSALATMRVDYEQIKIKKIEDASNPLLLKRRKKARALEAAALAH"}, "MER": {"biological_target": "T3, MER (Homo sapiens, UniProt Q12866)", "T3 sequence (Q12866 1-999)": "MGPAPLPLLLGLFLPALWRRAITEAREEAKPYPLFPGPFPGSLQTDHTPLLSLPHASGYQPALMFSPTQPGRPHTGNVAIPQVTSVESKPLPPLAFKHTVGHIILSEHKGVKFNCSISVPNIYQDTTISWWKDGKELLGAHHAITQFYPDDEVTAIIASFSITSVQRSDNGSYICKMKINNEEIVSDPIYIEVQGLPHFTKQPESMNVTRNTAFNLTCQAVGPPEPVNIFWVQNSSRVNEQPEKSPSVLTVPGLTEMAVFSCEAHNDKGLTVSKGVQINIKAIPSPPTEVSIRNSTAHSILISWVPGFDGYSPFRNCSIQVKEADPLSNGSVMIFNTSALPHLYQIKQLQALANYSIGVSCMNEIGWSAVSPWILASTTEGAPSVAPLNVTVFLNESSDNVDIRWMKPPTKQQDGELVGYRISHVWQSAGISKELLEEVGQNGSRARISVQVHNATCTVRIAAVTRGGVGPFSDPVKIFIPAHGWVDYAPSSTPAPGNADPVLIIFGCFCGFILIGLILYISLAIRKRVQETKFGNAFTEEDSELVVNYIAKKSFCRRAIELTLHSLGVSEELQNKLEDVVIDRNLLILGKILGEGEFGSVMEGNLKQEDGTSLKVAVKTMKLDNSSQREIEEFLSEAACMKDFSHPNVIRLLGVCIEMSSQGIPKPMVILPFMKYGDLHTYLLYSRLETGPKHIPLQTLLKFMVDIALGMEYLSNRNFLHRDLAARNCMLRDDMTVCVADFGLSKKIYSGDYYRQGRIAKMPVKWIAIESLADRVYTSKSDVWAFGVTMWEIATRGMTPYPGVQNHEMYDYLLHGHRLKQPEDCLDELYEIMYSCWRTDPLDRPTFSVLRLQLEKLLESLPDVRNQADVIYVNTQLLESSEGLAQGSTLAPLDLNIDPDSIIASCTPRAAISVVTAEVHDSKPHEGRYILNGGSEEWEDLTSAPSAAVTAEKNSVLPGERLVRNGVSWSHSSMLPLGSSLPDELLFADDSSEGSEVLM"}, "MRCKa": {"biological_target": "MRCKa (Homo sapiens, UniProt Q5VT25)", "sequence (Q5VT25 whole entry)": "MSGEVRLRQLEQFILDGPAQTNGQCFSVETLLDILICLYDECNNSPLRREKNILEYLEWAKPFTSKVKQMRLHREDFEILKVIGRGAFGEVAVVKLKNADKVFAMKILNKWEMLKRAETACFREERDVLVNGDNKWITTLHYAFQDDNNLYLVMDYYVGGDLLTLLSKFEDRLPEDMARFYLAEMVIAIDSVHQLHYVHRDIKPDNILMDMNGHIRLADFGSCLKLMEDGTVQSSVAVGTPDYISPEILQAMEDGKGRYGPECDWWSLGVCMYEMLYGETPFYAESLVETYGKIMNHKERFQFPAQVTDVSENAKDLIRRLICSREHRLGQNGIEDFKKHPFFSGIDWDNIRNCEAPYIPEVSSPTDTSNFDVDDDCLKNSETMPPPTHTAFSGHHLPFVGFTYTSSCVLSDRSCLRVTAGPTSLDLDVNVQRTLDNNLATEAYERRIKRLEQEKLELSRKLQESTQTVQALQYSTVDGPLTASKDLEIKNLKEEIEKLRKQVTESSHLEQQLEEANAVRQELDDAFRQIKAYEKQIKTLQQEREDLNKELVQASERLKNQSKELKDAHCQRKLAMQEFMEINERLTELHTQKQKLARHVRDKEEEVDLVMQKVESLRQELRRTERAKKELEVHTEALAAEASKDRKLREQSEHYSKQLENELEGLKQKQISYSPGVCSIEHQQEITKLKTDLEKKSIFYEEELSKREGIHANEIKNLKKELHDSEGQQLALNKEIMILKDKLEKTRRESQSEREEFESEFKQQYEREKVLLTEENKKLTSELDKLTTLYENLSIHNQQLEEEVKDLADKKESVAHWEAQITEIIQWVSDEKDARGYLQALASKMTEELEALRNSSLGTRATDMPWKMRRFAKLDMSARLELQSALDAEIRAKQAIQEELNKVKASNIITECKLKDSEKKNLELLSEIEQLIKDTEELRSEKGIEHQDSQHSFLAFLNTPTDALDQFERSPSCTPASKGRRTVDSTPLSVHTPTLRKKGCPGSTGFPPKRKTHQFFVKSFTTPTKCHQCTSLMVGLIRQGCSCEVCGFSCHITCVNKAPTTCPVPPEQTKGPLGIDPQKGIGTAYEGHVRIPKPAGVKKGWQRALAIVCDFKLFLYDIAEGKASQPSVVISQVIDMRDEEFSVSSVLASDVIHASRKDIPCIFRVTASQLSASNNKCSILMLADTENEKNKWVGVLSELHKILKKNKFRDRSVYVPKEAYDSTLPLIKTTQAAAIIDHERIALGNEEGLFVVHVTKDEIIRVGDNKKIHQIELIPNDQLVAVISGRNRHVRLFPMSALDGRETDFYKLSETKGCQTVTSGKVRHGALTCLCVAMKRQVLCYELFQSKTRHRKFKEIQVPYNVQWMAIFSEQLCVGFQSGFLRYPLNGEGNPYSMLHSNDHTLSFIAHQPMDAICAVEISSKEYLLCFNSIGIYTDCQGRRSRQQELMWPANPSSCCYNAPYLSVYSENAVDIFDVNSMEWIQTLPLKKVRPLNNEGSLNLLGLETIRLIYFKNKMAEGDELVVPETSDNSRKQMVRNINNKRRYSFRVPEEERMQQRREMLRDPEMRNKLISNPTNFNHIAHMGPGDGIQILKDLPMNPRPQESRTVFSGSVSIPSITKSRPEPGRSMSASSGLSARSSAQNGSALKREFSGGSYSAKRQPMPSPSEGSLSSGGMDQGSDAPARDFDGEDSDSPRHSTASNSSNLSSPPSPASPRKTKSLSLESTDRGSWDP"}, "STLK3": {"biological_target": "STLK3 (Homo sapiens, UniProt Q9UEW8)"}},
  "data": [
    {"compound": "Cc1cccc(-c2ccc(-c3cc4cnc(Nc5ccc(F)c(CO)c5)nc4n(CCCCN)c3=O)c(Cl)c2)n1", "note": "[compound 33, 8-(4-Aminobutyl)-6-(2-chloro-4-(6-methylpyridin-2-yl)phenyl)-2-((4-fluoro-3-(hydroxymethyl)phenyl)amino)pyrido[2,3-d]pyrimidin-7(8H)-one]", "values": [
      {"measurement": "dTm 33", "setting": "CDK2", "result": 6.0, "unit": "°C"},
      {"measurement": "dTm 33", "setting": "DYRK1A", "result": -0.6, "unit": "°C"},
      {"measurement": "dTm 33", "setting": "DYRK2", "result": -1.0, "unit": "°C"},
      {"measurement": "dTm 33", "setting": "FECH", "result": -2.9, "unit": "°C"},
      {"measurement": "dTm 33", "setting": "MAPKAPK2", "result": -0.5, "unit": "°C"},
      {"measurement": "dTm 33", "setting": "MER", "result": 3.1, "unit": "°C"},
      {"measurement": "dTm 33", "setting": "MRCKa", "result": 1.9, "unit": "°C"},
      {"measurement": "dTm 33", "setting": "STLK3", "result": 16.8, "unit": "°C"}
    ]},
    {"compound": "COc1ccc(O)c(Nc2ncc3cc(-c4ccc(-c5cccc(C)n5)cc4Cl)c(=O)n(CCCCN)c3n2)c1", "note": "[compound 34, 8-(4-Aminobutyl)-6-(2-chloro-4-(6-methylpyridin-2-yl)phenyl)-2-((2-hydroxy-5-methoxy-phenyl)amino)pyrido[2,3-d]pyrimidin-7(8H)-one]", "values": [
      {"measurement": "dTm 34", "setting": "CDK2", "result": 1.4, "unit": "°C"},
      {"measurement": "dTm 34", "setting": "DYRK1A", "result": -1.0, "unit": "°C"},
      {"measurement": "dTm 34", "setting": "DYRK2", "result": 0.0, "unit": "°C"},
      {"measurement": "dTm 34", "setting": "FECH", "result": 3.2, "unit": "°C"},
      {"measurement": "dTm 34", "setting": "MAPKAPK2", "result": -0.1, "unit": "°C"},
      {"measurement": "dTm 34", "setting": "MER", "result": 0.1, "unit": "°C"},
      {"measurement": "dTm 34", "setting": "MRCKa", "result": 0.8, "unit": "°C"},
      {"measurement": "dTm 34", "setting": "STLK3", "result": 11.0, "unit": "°C"}
    ]},
    {"compound": "COc1cc(N2CCOCC2)ccc1Nc1ncc2cc(-c3ccc(-c4cccc(C)n4)cc3Cl)c(=O)n(CCCCN)c2n1", "note": "[compound 35, 8-(4-Aminobutyl)-6-(2-chloro-4-(6-methylpyridin-2-yl)phenyl)-2-((2-methoxy-4-morpholino-phenyl)amino)pyrido[2,3-d]pyrimidin-7(8H)-one]", "values": [
      {"measurement": "dTm 35", "setting": "CDK2", "result": 1.0, "unit": "°C"},
      {"measurement": "dTm 35", "setting": "DYRK1A", "result": -2.3, "unit": "°C"},
      {"measurement": "dTm 35", "setting": "DYRK2", "result": -0.6, "unit": "°C"},
      {"measurement": "dTm 35", "setting": "FECH", "result": 7.0, "unit": "°C"},
      {"measurement": "dTm 35", "setting": "MAPKAPK2", "result": -0.6, "unit": "°C"},
      {"measurement": "dTm 35", "setting": "MER", "result": 0.0, "unit": "°C"},
      {"measurement": "dTm 35", "setting": "MRCKa", "result": -2.1, "unit": "°C"},
      {"measurement": "dTm 35", "setting": "STLK3", "result": 13.4, "unit": "°C"}
    ]},
    {"compound": "COc1cc(N2CCN(C)CC2)ccc1Nc1ncc2cc(-c3ccc(-c4cccc(C)n4)cc3Cl)c(=O)n(CCCCN)c2n1", "note": "[compound 36, 8-(4-Aminobutyl)-6-(2-chloro-4-(6-methylpyridin-2-yl)phenyl)-2-((2-methoxy-4-(4-methylpiperazin-1-yl)phenyl)amino)pyrido[2,3-d]pyrimidin-7(8H)-one]", "values": [
      {"measurement": "dTm 36", "setting": "CDK2", "result": 0.6, "unit": "°C"},
      {"measurement": "dTm 36", "setting": "DYRK1A", "result": -0.8, "unit": "°C"},
      {"measurement": "dTm 36", "setting": "DYRK2", "result": -0.4, "unit": "°C"},
      {"measurement": "dTm 36", "setting": "FECH", "result": 3.0, "unit": "°C"},
      {"measurement": "dTm 36", "setting": "MAPKAPK2", "result": -0.1, "unit": "°C"},
      {"measurement": "dTm 36", "setting": "MER", "result": -0.2, "unit": "°C"},
      {"measurement": "dTm 36", "setting": "MRCKa", "result": -0.9, "unit": "°C"},
      {"measurement": "dTm 36", "setting": "STLK3", "result": 9.3, "unit": "°C"}
    ]}
  ]
}
